Assay: xn = mol fraction of the nth substance listed
Conditions: 298 K, Liquid

ClCCCCCl [1,4-dichlorobutane] + CN(C)C=O
mass density [kg/m3]
Conditions	x2 = 0.1003	x2 = 0.1923	x2 = 0.2994	x2 = 0.4006	x2 = 0.5022	x2 = 0.6004	x2 = 0.7029	x2 = 0.7943	x2 = 0.9006
100 kPa	1119	1105.1	1087.9	1071.2	1052.4	1034	1013.1	993.4	968.9
500 kPa	1119.3	1105.4	1088.2	1071.5	1052.7	1034.2	1013.4	993.7	969.2
1000 kPa	1119.7	1105.8	1088.6	1071.8	1053.1	1034.6	1013.8	994	969.6
1500 kPa	1120.1	1106.1	1089	1072.2	1053.5	1035	1014.1	994.3	969.8
2000 kPa	1120.4	1106.5	1089.3	1072.6	1053.8	1035.3	1014.4	994.7	970.2
2500 kPa	1120.8	1106.9	1089.7	1072.9	1054.2	1035.7	1014.7	995	970.5
3000 kPa	1121.2	1107.3	1090.1	1073.3	1054.5	1036	1015.1	995.4	970.7
3500 kPa	1121.6	1107.7	1090.4	1073.6	1054.8	1036.3	1015.4	995.7	971.1
4000 kPa	1122	1108.1	1090.8	1074	1055.2	1036.7	1015.8	996	971.4
4500 kPa	1122.3	1108.4	1091.2	1074.4	1055.5	1037	1016.1	996.4	971.8
5000 kPa	1122.7	1108.8	1091.6	1074.8	1055.9	1037.4	1016.4	996.7	972.1
5500 kPa	1123.1	1109.2	1091.9	1075.1	1056.2	1037.7	1016.8	996.9	972.3
6000 kPa	1123.4	1109.5	1092.3	1075.4	1056.6	1038.1	1017	997.3	972.6
6500 kPa	1123.8	1109.9	1092.6	1075.9	1057	1038.4	1017.5	997.6	972.9
7000 kPa	1124.2	1110.3	1093	1076.2	1057.2	1038.8	1017.8	997.9	973.3
7500 kPa	1124.6	1110.7	1093.4	1076.6	1057.6	1039.1	1018	998.3	973.6
8000 kPa	1124.9	1111	1093.7	1076.9	1057.9	1039.4	1018.4	998.5	973.9
8500 kPa	1125.2	1111.4	1094	1077.2	1058.3	1039.7	1018.7	998.9	974.2
9000 kPa	1125.6	1111.8	1094.4	1077.6	1058.7	1040.1	1019.1	999.2	974.5
9500 kPa	1126	1112.2	1094.8	1078	1059	1040.4	1019.4	999.5	974.8
10000 kPa	1126.4	1112.6	1095.2	1078.4	1059.3	1040.8	1019.7	999.9	975.2
10500 kPa	1126.8	1112.9	1095.5	1078.7	1059.7	1041.1	1020.1	1000.2	975.5
10900 kPa	1127.1	–	–	–	–	–	–	–	–
11000 kPa	–	1113.3	1095.9	1079.1	1060	1041.5	1020.4	–	975.8
11500 kPa	1127.4	1113.6	1096.2	1079.4	1060.3	1041.8	1020.7	1000.8	976.1
11900 kPa	–	1113.9	–	–	1060.6	–	–	–	–
12000 kPa	1127.8	–	1096.6	1079.8	–	1042.1	1021.1	1001.2	976.4
12500 kPa	1128.2	1114.3	1096.9	1080.1	1061	1042.4	1021.4	1001.5	976.7
12900 kPa	–	–	–	–	–	–	1021.7	–	–
13000 kPa	1128.5	1114.7	1097.3	1080.4	1061.3	1042.7	–	1001.7	976.9
13500 kPa	1128.9	1115	1097.7	1080.8	1061.6	1043.1	1022	1002.1	977.2
13900 kPa	–	1115.3	–	–	1062	–	–	–	–
14000 kPa	1129.2	–	1097.9	1081.1	–	1043.4	1022.4	1002.3	977.5
14400 kPa	–	–	–	1081.4	–	–	1022.6	–	–
14500 kPa	1129.5	1115.7	1098.2	–	1062.3	1043.7	–	1002.7	977.8
15000 kPa	1129.9	1116	1098.6	1081.8	1062.6	1044	1023	1003	978.1
15500 kPa	1130.3	1116.4	1099	1082.1	1063	1044.4	1023.2	1003.3	978.4
16000 kPa	1130.6	1116.8	1099.2	1082.5	1063.3	1044.6	1023.5	1003.5	978.7
16500 kPa	1130.9	1117.1	1099.6	1082.8	1063.6	1045	1023.8	1003.8	978.9
16900 kPa	–	1117.4	–	–	–	–	1024.1	1004.1	–
17000 kPa	1131.3	–	1100	1083.1	1063.9	1045.3	–	–	979.3
17500 kPa	1131.6	1117.8	1100.3	1083.5	1064.2	1045.6	1024.4	1004.5	979.5
17900 kPa	–	–	–	–	1064.5	–	–	–	–
18000 kPa	1132	1118.1	1100.6	1083.8	–	1045.9	1024.7	1004.9	979.8
18500 kPa	1132.3	1118.4	1100.9	1084.2	1065	1046.3	1025.1	1005.1	980
19000 kPa	1132.8	1118.8	1101.4	1084.5	1065.3	1046.6	1025.4	1005.5	980.4
19400 kPa	–	–	1101.7	–	–	–	–	1005.7	–
19500 kPa	1133.1	1119.1	–	1084.9	1065.5	1046.9	1025.7	–	980.7
20000 kPa	1133.4	1119.5	–	1085.3	1065.9	1047.2	1026.1	1006.1	981
20100 kPa	–	–	1102.2	–	–	–	–	–	–

From the NIST ThermoML archive (doi:10.1021/je700339f)
